Reference: PMC4725915, “Ruthenium(II) Complexes with 2-Phenylimidazo[4,5-f][1,10]phenanthroline Derivatives that Strongly Combat Cisplatin-Resistant Tumor Cells” (Scientific Reports, 2016)

Legend:
A549R MCTSs = assay: Cytotoxicity test on 3D MCTSs (Cell TiterGlo ATP); format: cell-based, human; conditions: A549R MCTSs (~400 μm in diameter), 48 h
Protocol: MCTSs were cultured using the liquid overlay method. A549R cells in the exponential growth phase were dissociated by a trypsin/EDTA solution to gain single-cell suspensions. A number of 3000 diluted A549R cells were transferred to 1.5% agarose-coated transparent 96-well plates with 200 μL of DMEM containing 10% serum. The single cells formed MCTS aggregates approximately 400 μm in diameter after three days with 5% CO2 and 20% O2 at 37 °C. After formation of the MCTSs, each MCTS in a 96-well plate was imaged with a phase contrast microscope (Zeiss Axio Observer D1, Germany) using 10× objective to monitor their color, integrity, diameter, and volume.
A549R MCTSs (diameters ≈400 μm) were treated by carefully replacing 50% of the medium with drug-supplemented standard medium using an eight-channel pipet. In parallel, 50% of the medium containing solvent was replaced with solvent-free medium for the untreated MCTSs. Three A549R MCTSs were treated per condition and drug concentration; the DMSO volume was less than 1% (v/v). The MCTSs were then allowed to incubate for another 48 h. The cytotoxicities of the Ru(II) complexes toward the MCTSs were measured using ATP concentrations with a Cell TiterGlo kit (Promega). After 30 min of incubation, the MCTSs were carefully transferred into black-sided, flat-bottomed 96-well plates (Corning) and mixed with a pipet for luminescence measurements on an Infinite M200 PRO instrument (TECAN).

TrxR = TrxR activity assay in A549R cells (DTNB reduction); format: cell-based, human; conditions: 4.0 μM, 12 h
Source text: The elevated levels of TrxR in cancers, especially in non-small cell lung cancers, are responsible for drug resistance. The thioredoxin system has a significant influence on intracellular physiological processes, such as antioxidant defense, cell functions, cell apoptosis and cell proliferation. TrxR has previously been identified as a drug target. […] In addition, the expression levels of TrxR in A549R cells in response to the addition of complex 4 were also examined by Western blot analysis.
A549R cells (2 × 10^6 cells) treated or untreated with complex 4 for 12 h were homogenized in 100–200 μl of cold assay buffer on ice and a protease inhibitor cocktail was added to the sample; the sample was then centrifuged at 10,000 x g for 15 min at 4 °C. The supernatant was collected for the assay and stored on ice. The protein concentration of each supernatant was determined using the Bradford reagent. A total of 40 μl of the reaction mix (30 μl assay buffer, 8 μl 5, 5′-dithiobis (2-nitrobenzoic) acid (DTNB) solution and 2 μl NADPH) was added to each sample and incubated at 25 °C for 20 min. TrxR catalyzes the reduction of DTNB by NADPH to 5-thio-2-nitrobenzoic acid (TNB2), which generates a strong yellow color (λmax = 412 nm); consequently, the amount of […] was used to monitor the change in absorbance at 412 nm. […]

[1] = Distribution coefficient (log Po/w), flask-shaking, n-octanol/phosphate buffer; format: physicochemical; conditions: n-octanol / phosphate buffer pH 7.4, 37 °C; in words only (Figure S8)
Protocol: Distribution coefficients (log Po/w) were determined by liquid-liquid extraction between n-octanol (oil) and phosphate buffers (0.2 M, pH 7.4) with the flask-shaking method. N-Octanol and the buffer were mutually saturated with each other for at least 24 h before use. An aliquot of a ruthenium complex stock solution was added to the phosphate buffer concentrations at <10 mg/mL, and the mixture was shaken at 100 rpm for 24 h at 37 °C to allow for adequate partitioning. After the sample was centrifuged at 3000 rpm for 20 min, the aqueous layer was used for ruthenium analysis, and the Ru content in the aqueous layer was measured by ICP-MS and used to calculate the log Po/w.

[2] = system: cancer cell lines (HeLa, A549, A549R); assay: MTT cytotoxicity, all tested cancer cell lines taken together; format: cell-based, human; conditions: 48 h, read-out: IC50 toward all the tested cancer cell lines
Protocol: Compounds 1–4 were evaluated against three tumor cell lines derived from different tissues, including the cervix (HeLa), lung (A549) and cisplatin-resistant lung (A549R) tissues. For comparison, the cytotoxicity of cisplatin was also evaluated. As a control, the toxicities of the complexes were also tested against the normal human cell line (LO2).
The cytotoxicity of the ruthenium complexes and cisplatin were determined by an MTT assay. Briefly, cells were seeded into 96-well microtiter plates at 1 × 10^4 cells per well and grown overnight at 37 °C in a 5% CO2 incubator; then, different concentrations of the complexes in cell culture medium were added to the cultures. The plates were then incubated in an incubator for 48 h under the same conditions. The stock MTT dye solution (15 μL, 5 mg/mL) was added to each well. After 4 h of incubation, the cultures were removed and 150 μL of DMSO was added to each well. The optical density of each well was measured on a microplate spectrophotometer at a wavelength of 595 nm.

A549R cells = assay: Cell cycle analysis (PI, FACS); format: cell-based, human; conditions: 24 h
Protocol: Cell proliferation is activated under pathological conditions and plays a crucial role in cancer cell regeneration. Deregulated cell-cycle control is a fundamental aspect of cancer and the process is related to the proliferation and death of cancer cells. Therefore, the effect of cyclometalated complex 4 on cell cycles was investigated using fluorescence-activated cell sorting (FACS) analysis of the DNA content. […] A higher dose of complex 4 (2.0 μM) elicited a strong G2/M arrest of A549R cells, accounting for 46% of the cell population (control, 12.82%). The enrichment of the G2/M phase of the cell cycle of A549R cells may have led to their apoptosis by disrupting the cell cycle.
A549R cells were treated with different concentrations of complex 4 (i.e., 0.5, 1.0 and 2.0 μM) for 24 h. The cells were collected and fixed in 2 mL of 70% cold aqueous ethanol (v/v). After incubation, the cells were centrifuged and washed three times with cold PBS and resuspended in 0.5 mL of PBS. To a 0.5 mL cell sample, […] of RNase A (1 mg/mL in PBS) was added and incubated for 30 min at 37 °C; then, […] of a PI ([…] in PBS) solution was added after gentle mixing for 5 min at 37 °C in the dark. The samples were resuspended and 10,000 cells were analyzed for each sample by a BD FACS Calibur cytometer (Becton Dickinson, Heidelberg, Germany). The data were acquired and analyzed with ModFit LT 3.2.

## Ru(phen)(bzq)(tbtfpip)(PF6) [Complex 4]
A549R MCTSs
  IC50: 1800 ± 300 nM
TrxR
  decline of intracellular TrxR activity: approximately 45%
[1]
  log Po/w: largest
[2]
  IC50: 800 to 2400 nM
A549R cells; 2.0 μM, control 12.82%
  G2/M share of the cell population: 46%
A549R cells; control 68.46
  percentage of cells in the G0/G1 phase: 30.87%
